We go through 36 compounds from ChEMBL document CHEMBL3259622, “Enhancing a CH-π Interaction to Increase the Affinity for 5-HT1A Receptors” (ACS Med Chem Lett, 2014).

The target of assay [1] is T1, 5-hydroxytryptamine receptor 1A (Homo sapiens, UniProt P08908).
T1 sequence (P08908 whole entry): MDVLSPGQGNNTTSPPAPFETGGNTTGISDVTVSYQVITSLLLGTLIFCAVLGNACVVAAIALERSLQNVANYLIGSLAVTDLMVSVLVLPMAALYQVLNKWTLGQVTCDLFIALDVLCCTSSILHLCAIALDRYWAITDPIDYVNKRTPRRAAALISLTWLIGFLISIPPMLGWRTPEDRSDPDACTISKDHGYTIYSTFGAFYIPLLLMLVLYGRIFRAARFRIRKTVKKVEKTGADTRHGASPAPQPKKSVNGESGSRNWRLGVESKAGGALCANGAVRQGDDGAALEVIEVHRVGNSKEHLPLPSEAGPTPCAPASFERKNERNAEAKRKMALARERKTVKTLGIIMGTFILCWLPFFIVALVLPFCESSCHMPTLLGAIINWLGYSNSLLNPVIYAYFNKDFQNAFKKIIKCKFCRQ
In words: Displacement of [3H]-[…] from human recombinant 5HT1A receptor expressed in CHO cells after 60 mins by liquid scintillation counting analysis. The format is cell-based. In general terms: In a radioligand displacement assay an active substance lowers the binding of a labelled ligand.

The target of assay [2] is T2, 5-hydroxytryptamine receptor 1A (Homo sapiens) (UniProt P08908).
T2 sequence (whole entry): T1 sequence (P08908 whole entry)
In words: Displacement of [3H]-[…] from human recombinant 5HT1A receptor expressed in CHO cells assessed as residual activity at 1 uM after 60 mins by liquid scintillation counting analysis. The format is cell-based.

For assay [3], the target named is T3, 5-hydroxytryptamine receptor 1A (Rattus norvegicus) (UniProt P19327).
T3 sequence (whole entry): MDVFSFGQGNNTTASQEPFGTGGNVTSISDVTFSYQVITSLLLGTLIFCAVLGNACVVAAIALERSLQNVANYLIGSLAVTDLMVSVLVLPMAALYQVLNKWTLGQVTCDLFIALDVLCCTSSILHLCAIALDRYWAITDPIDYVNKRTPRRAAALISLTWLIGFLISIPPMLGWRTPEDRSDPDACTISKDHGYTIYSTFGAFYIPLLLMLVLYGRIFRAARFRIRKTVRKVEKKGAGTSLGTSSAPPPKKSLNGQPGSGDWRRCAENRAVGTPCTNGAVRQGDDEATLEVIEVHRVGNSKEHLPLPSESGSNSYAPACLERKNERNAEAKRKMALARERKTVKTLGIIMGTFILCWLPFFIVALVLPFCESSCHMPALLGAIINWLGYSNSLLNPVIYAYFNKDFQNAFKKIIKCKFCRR
In words: Agonist activity at Wistar rat brain 5HT1A receptor assessed as inhibition of firing rate of dorsal raphe nucleus by electrophysiological analysis in presence of WAY-100635. The format is tissue-based.

Assay [4] addresses T4, 5-hydroxytryptamine receptor 1A (Rattus norvegicus, UniProt P19327).
T4 sequence (P19327 whole entry): T3 sequence (whole entry)
In words: Agonist activity at Wistar rat brain 5HT1A receptor assessed as inhibition of firing rate of dorsal raphe nucleus by electrophysiological analysis. It is filed as tissue-based.

Structures are written as SMILES. Calls of active or inactive are those of the source. The calls are words filed in the database; no cut-off is given here.

A word on the Ki: it is a dissociation constant, usually derived from enzyme kinetics or from competition with a known ligand. One may read the IC50 as the concentration needed to halve the response being measured.

As for `Cc1ccc(C2=CCN(CCNC(=O)c3ccc4ccccc4c3)CC2)cc1`, the Ki in assay [1] was 31.6 nM.

As for `Cc1cc(C)cc(N2CCN(CCNC(=O)c3ccc4ccccc4c3)CC2)c1`, the Ki in assay [1] was determined as 21 nM.

`Cc1cc(C)cc(C2=CCN(CCN3C(=O)c4ccccc4C3=O)CC2)c1`: in assay [1], the inhibition constant Ki was found to be 105 nM.

On to `Cc1ccc(N2CCN(CCN3C(=O)c4ccccc4C3=O)CC2)cc1`, for which the Activity in assay [2] was 97%.

Consider `O=C(NCCN1CCN(c2ccccc2)CC1)c1ccc2ccccc2c1`, for which, in assay [1], the Ki is 24.7 nM.

As to `Cc1ccc(N2CCN(CCNC(=O)c3ccc4ccccc4c3)CC2)cc1`, the Ki in assay [1] was 221 nM.

Consider `O=C1c2ccccc2C(=O)N1CCN1CCN(c2ccccc2)CC1`, for which the Activity in assay [2] came out at 82%.

As for `O=C(NCCN1CC=C(c2ccc(Cl)cc2)CC1)c1ccc2ccccc2c1`, the Ki in assay [1] amounted to 42.5 nM.

With `O=C(NCCN1CCN(c2cc(F)cc(F)c2)CC1)c1ccc2ccccc2c1`, in assay [1], the Ki was 28.9 nM.

As to `O=C(NCCN1CC=C(c2cc(F)cc(F)c2)CC1)c1ccc2ccccc2c1`, the Ki in assay [1] turned out to be 7.29 nM.

With `Cc1cc(C)cc(N2CCN(CCNC(=O)c3cnc4ccccc4n3)CC2)c1`, in assay [3], the inhibition entry is “inactive”. Further, in assay [1], the Ki came to 3.67 nM. Besides, in assay [4], the IC50 was found to be 383 nM.

Turning to `O=C(NCCN1CC=C(c2ccccc2)CC1)c1cnc2ccccc2n1`, in assay [3], the inhibition result was “inactive”. The Ki in assay [1] worked out at 3.76 nM. In assay [4], the IC50 was determined as 460 nM.

Regarding `O=C1c2ccccc2C(=O)N1CCN1CC=C(c2ccc(Cl)cc2)CC1`, the Ki in assay [1] was found to be 631 nM.

In the case of `Cc1cc(C)cc(N2CCN(CCN3C(=O)c4ccccc4C3=O)CC2)c1`, the inhibition constant (Ki) in assay [1] worked out at 496 nM.

In the case of `O=C(NCCN1CC=C(c2ccc(F)cc2)CC1)c1ccc2ccccc2c1`, in assay [1], the Ki amounted to 33.5 nM.

Consider `O=C1c2ccccc2C(=O)N1CCN1CCN(c2cc(F)cc(F)c2)CC1`, for which the Activity in assay [2] worked out at 79.6%.

In the case of `O=C(NCCN1CC=C(c2ccccc2)CC1)c1ccc2ccccc2c1`, the Ki in assay [1] came to 6.1 nM.

In the case of `O=C1c2ccccc2C(=O)N1CCN1CCN(c2ccc(F)cc2)CC1`, the Activity in assay [2] turned out to be 80.4%.

Consider `Cc1ccc(C2=CCN(CCNC(=O)c3cnc4ccccc4n3)CC2)cc1`, for which the Ki in assay [1] was found to be 7.55 nM.

`O=C(NCCN1CCN(c2ccc(Cl)cc2)CC1)c1cnc2ccccc2n1`: the inhibitory constant (Ki) in assay [1] was 27 nM.

For `Cc1cc(C)cc(C2=CCN(CCNC(=O)c3cnc4ccccc4n3)CC2)c1`, the inhibition result in assay [3] was “inactive”. In addition, the Ki in assay [1] amounted to 1.1 nM. The half-maximal inhibitory concentration (IC50) in assay [4] is 172 nM.

`O=C1c2ccccc2C(=O)N1CCN1CCN(c2ccc(Cl)cc2)CC1`: the Activity in assay [2] stood at 97.4%.

Consider `O=C(NCCN1CC=C(c2ccc(Cl)cc2)CC1)c1cnc2ccccc2n1`, for which the Ki in assay [1] is 9.3 nM.

As for `O=C(NCCN1CCN(c2ccc(F)cc2)CC1)c1cnc2ccccc2n1`, the inhibition constant Ki in assay [1] is 63.3 nM.

For the compound `O=C(NCCN1CCN(c2ccc(F)cc2)CC1)c1ccc2ccccc2c1`, in assay [1], the Ki was determined as 54.3 nM.

Regarding `Cc1ccc(C2=CCN(CCN3C(=O)c4ccccc4C3=O)CC2)cc1`, the Activity in assay [2] was determined as 80%.

For the compound `O=C1c2ccccc2C(=O)N1CCN1CC=C(c2ccccc2)CC1`, in assay [1], the Ki was determined as 706 nM.

Regarding `O=C1c2ccccc2C(=O)N1CCN1CC=C(c2cc(F)cc(F)c2)CC1`, in assay [1], the Ki was 425 nM.

With `O=C1c2ccccc2C(=O)N1CCN1CC=C(c2ccc(F)cc2)CC1`, the Activity in assay [2] was 76.8%.

`O=C(NCCN1CC=C(c2ccc(F)cc2)CC1)c1cnc2ccccc2n1`: the Ki in assay [1] amounted to 14 nM.

On to `O=C(NCCN1CCN(c2ccccc2)CC1)c1cnc2ccccc2n1`, for which the inhibition result in assay [3] is “inactive”. The Ki in assay [1] worked out at 30 nM. In assay [4], the IC50 came out at 1680 nM.

Take `O=C(NCCN1CC=C(c2cc(F)cc(F)c2)CC1)c1cnc2ccccc2n1`: in assay [3], the inhibition entry was “inactive”. The inhibition constant Ki in assay [1] was 2.62 nM. Besides, the IC50 in assay [4] was found to be 95 nM.

For the compound `Cc1cc(C)cc(C2=CCN(CCNC(=O)c3ccc4ccccc4c3)CC2)c1`, in assay [1], the Ki was found to be 8.06 nM.

Consider `O=C(NCCN1CCN(c2cc(F)cc(F)c2)CC1)c1cnc2ccccc2n1`, for which the inhibition entry in assay [3] was “inactive”. Moreover, the inhibition constant (Ki) in assay [1] is 11.1 nM. The 50% inhibitory concentration (IC50) in assay [4] was 1140 nM.

As for `O=C(NCCN1CCN(c2ccc(Cl)cc2)CC1)c1ccc2ccccc2c1`, the Ki in assay [1] was determined as 50.7 nM.

Take `Cc1ccc(N2CCN(CCNC(=O)c3cnc4ccccc4n3)CC2)cc1`: the inhibition constant (Ki) in assay [1] was found to be 27.3 nM.
